Laboratory results: patent US3988476A, “Pharmaceutical compositions and methods of treating allergic conditions utilizing 2-nitroindane-1,3-dione derivatives as the active agent” (Beecham Group Limited, priority 1972, dated 1976)

Tested on: PCA response
Test: Rat Passive Cutaneous Anaphylaxis (PCA) test, ovalbumin challenge
Assay type: in vivo, Wistar rats
Details: for % Inhibition of PCA response: 34 mg/kg
Procedure: All of the 2-nitro indane-1,3-dione prepared in the preceding Examples were submitted for biological testing. The test system was the Rat Passive Cutaneous Anaphylaxis (PCA) test described below in (ii).
Male Wister rats of 250- 300 g, were injected intraperitoneally with 0.5 ml of Bordatella pertussis vaccine (containing 4× 10^10 dead organism per ml) and subcutaneously with 0.5 ml of an emulsion of 100 mg. of ovalbumin in 2 ml of saline and 3 ml of incomplete Freunds' adjuvant. Rats were bled by cardiac puncture on day 18, the blood was pooled and separated and serum stored at -20° and thawed only once before use.
0.1 ml of each of six twofold serial dilutions of the serum in 0.9% saline were injected intradermally into separate sites on the shaved dorsal surface of 250-350 g. Wistar rats. 72 hours later the animals were challenged by i.v. injection of 0.3 ml of 1% ovalbumin mixed with 0.1 ml of a 5% solution of pontamine sky blue dye both in isotonic saline buffered with pH. 7.2 Sorenson buffer (P.B.S.). The rats were killed after 20 minutes and the diameter of the blue wheals at the antibody injection sites were measured. The starting dilution of the serum was adjusted so that there was no response, after challenge, at the site of injection of the highest dilution and a maximum response at the lowest dilution.
Amounts of the compounds were administered to rats each amount to a test group of six animals at a specified time prior to intravenous challenge with ovalbumin.
For those compounds having insoluble sodium salts, the salts were isolated by reaction of the free nitro compound with 2.5N sodium hydroxide and the filtered sodium washed free of alkali with water. The dried salts were then administered as a suspension in 1% methyl cellulose.

[1] = 25 mg/kg, 0 min between dosing and challenge, solution of Na salt
[2] = 25 mg/kg, 60 min between dosing and challenge, solution of Na salt
[3] = 100 mg/kg, 0 min between dosing and challenge, solution of Na salt
[4] = 100 mg/kg, 60 min between dosing and challenge, solution of Na salt
[5] = 25 mg/kg, 0 min between dosing and challenge, suspension of Na salt in 1% methyl cellulose
[6] = 25 mg/kg, 60 min between dosing and challenge, suspension of Na salt in 1% methyl cellulose
[7] = 100 mg/kg, 0 min between dosing and challenge, suspension of Na salt in 1% methyl cellulose
[8] = 100 mg/kg, 60 min between dosing and challenge, suspension of Na salt in 1% methyl cellulose
[9] = 25 mg/kg, 30 min between dosing and challenge, solution of Na salt
[10] = 100 mg/kg, 30 min between dosing and challenge, solution of Na salt

Structure (SMILES)	% INHIBITION OF PCA RESPONSE [1] [%]	% INHIBITION OF PCA RESPONSE [3] [%]	% INHIBITION OF PCA RESPONSE [5] [%]	% INHIBITION OF PCA RESPONSE [6] [%]	% INHIBITION OF PCA RESPONSE [7] [%]	% INHIBITION OF PCA RESPONSE [8] [%]	% INHIBITION OF PCA RESPONSE [9] [%]	% INHIBITION OF PCA RESPONSE [10] [%]	further results
O=C1c2c(Cl)c(Cl)c(Cl)c(Cl)c2C(=O)C1[N+](=O)[O-] [2-Nitro-4,5,6,7-tetrachloro indane-1,3-dione]	-13	-3	–	–	–	–	–	–	% INHIBITION OF PCA RESPONSE [2]: 9%; % INHIBITION OF PCA RESPONSE [4]: 7%
O=C1c2cccc(-c3ccccc3)c2C(=O)C1[N+](=O)[O-] (stereo not drawn) [2-nitro-4-phenyl indane 1,3 indione, 2-Nitro-4-Phenyl indane-1,3-dione]	12	8	–	–	–	–	–	–	% INHIBITION OF PCA RESPONSE [2]: 22%; % INHIBITION OF PCA RESPONSE [4]: 24%
O=C1c2ccc(-c3ccccc3)cc2C(=O)C1[N+](=O)[O-] (stereo not drawn) [2-nitro-5-phenyl indane-1,3-dione, 2-Nitro-5-phenyl indane-1,3-dione]	–	–	58	56	82	36	–	–	–
O=C1c2cc3ccccc3cc2C(=O)C1[N+](=O)[O-] [2-nitro-benz[f] indane 1,3-dione, 2-Nitro benz[f] indane-1,3-dione]	–	–	100	37	100	72	–	–	–
O=C1c2ccc3ccccc3c2C(=O)C1[N+](=O)[O-] (stereo not drawn) [2-nitrobenz(e) indane-1,3-dione, 2-Nitro benz(e)indane-1,3-dione]	–	–	16	50	13	47	–	–	–
O=C1c2ccc3c(c2C(=O)C1[N+](=O)[O-])CCCC3 (stereo not drawn) [4,5-cyclohexano 2-nitroindane 1,3-dione, 4,5-Cyclohexano-2-nitroindane-1,3-dione]	–	–	–	–	–	–	–	–	% Inhibition of PCA response (0 min between dosing and challenge, suspension of Na salt in 1% methyl cellulose): 7%; % Inhibition of PCA response (60 min between dosing and challenge, suspension of Na salt in 1% methyl cellulose): 32%
O=C1c2ccc3c(c2C(=O)C1[N+](=O)[O-])CCC3 (stereo not drawn) [4,5-cyclopentano 2-nitroindane 1,3-dione, 4,5-Cyclopentano-2-nitro indane-1,3-dione]	–	–	5	34	26	28	–	–	–
Cc1cc(C)c2c(c1)C(=O)C([N+](=O)[O-])C2=O (stereo not drawn) [4,6-dimethyl-2-nitroindane-1,3-dione, 4,6-Dimethyl-2-nitro-indane-1,3-dione]	58	–	–	–	–	–	27	–	–
Cc1ccc(C)c2c1C(=O)C([N+](=O)[O-])C2=O [4,7-dimethyl-2-nitroindane-1,3-dione, 4,7-Dimethyl-2-nitro-indane-1,3-dione]	–	–	35	16	46	8	–	–	–
COc1cc(C)cc2c1C(=O)C([N+](=O)[O-])C2=O (stereo not drawn) [4-Methoxy-6-methyl-2-nitro indane-1,3-dione]	34	80	–	–	–	–	31	24	–
COc1ccc(C)c2c1C(=O)C([N+](=O)[O-])C2=O (stereo not drawn) [4-Methoxy-7-methyl-2-nitro indane1,3-dione]	34	36	–	–	–	–	62	44	–
O=C1c2cccc(Br)c2C(=O)C1[N+](=O)[O-] (stereo not drawn) [4-bromo-2-nitroindane-1,3-dione, 4-Bromo-2-nitro indane-1,3dione]	–	–	8	24	-4	70	–	–	–
CCOc1cccc2c1C(=O)C([N+](=O)[O-])C2=O (stereo not drawn) [4-ethoxy-2-nitroindane-1,3-dione, 4-Ethoxy-2-nitro indane-1,3-dione]	13	76	–	–	–	–	68	55	–
CCc1cccc2c1C(=O)C([N+](=O)[O-])C2=O (stereo not drawn) [4-ethyl-2-nitroindane-1,3-dione, 4-Ethyl-2-nitro indane-1,3-dione]	–	–	-5	23	1	25	–	–	–
O=C1c2cccc(F)c2C(=O)C1[N+](=O)[O-] (stereo not drawn) [4-fluoro-2-nitroindane-1,3-dione, 4-Fluoro-2-nitro indane-1,3-dione]	48	86	–	–	–	–	8	30	–
CC(C)COc1cccc2c1C(=O)C([N+](=O)[O-])C2=O (stereo not drawn) [4-isobutyloxy-2-nitroindane 1,3-dione, 4-Isobutyloxy-2-nitro indane-1,3-dione]	61	78	–	–	–	–	28	41	–
CC(C)Oc1cccc2c1C(=O)C([N+](=O)[O-])C2=O (stereo not drawn) [4-isopropyloxy-2-nitroindane 1,3-dione, 4Isopropyloxy-2-nitro-indane-1,3-dione]	–	–	23	–	49	–	–	–	% INHIBITION OF PCA RESPONSE (25 mg/kg, 30 min between dosing and challenge, suspension of Na salt in 1% methyl cellulose): 36%; % INHIBITION OF PCA RESPONSE (100 mg/kg, 30 min between dosing and challenge, suspension of Na salt in 1% methyl cellulose): 51%
COc1cccc2c1C(=O)C([N+](=O)[O-])C2=O (stereo not drawn) [4-methoxy-2-nitroindane-1,3-dione, 4-Methoxy-2-nitro indane-1,3-dione]	–	–	-2	25	18	36	–	–	–
Cc1cccc2c1C(=O)C([N+](=O)[O-])C2=O (stereo not drawn) [4-methyl-2-nitroindane-1,3-dione, 4-Methyl-2-nitroindane-1,3-dione]	–	–	2	33	6	57	–	–	–
CCCCOc1cccc2c1C(=O)C([N+](=O)[O-])C2=O (stereo not drawn) [4-n-butyloxy-2-nitroindane 1,3-dione, 4-n-Butyloxy-2-nitro indane-1,3-dione]	29	63	–	–	–	–	–	–	% INHIBITION OF PCA RESPONSE [2]: 43%; % INHIBITION OF PCA RESPONSE [4]: 50%
CCCOc1cccc2c1C(=O)C([N+](=O)[O-])C2=O (stereo not drawn) [4-n-propyloxy 2-nitroindane 1,3-dione, 2-Nitro-4-n-Propyloxy indane-1,3-dione]	77	30	–	–	–	–	37	37	–
Cc1cc2c(cc1C)C(=O)C([N+](=O)[O-])C2=O [5,6-dimethyl-2-nitroindane-1,3-dione, 5,6-Dimethyl-2-nitro-indane-1,3-dione]	–	–	92	48	73	54	–	–	–
O=C1c2ccc(Br)cc2C(=O)C1[N+](=O)[O-] (stereo not drawn) [5-bromo-2-nitroindane-1,3-dione, 5-Bromo-2-nitro indane-1,3-dione]	46	30	–	–	–	–	–	–	% INHIBITION OF PCA RESPONSE [2]: 87%; % INHIBITION OF PCA RESPONSE [4]: 64%
Cc1ccc2c(c1)C(=O)C([N+](=O)[O-])C2=O (stereo not drawn) [5-methyl-2-nitroindane-1,3-dione, 5-Methyl-2-nitroindane-1,3-dione]	66	100	–	–	–	–	44	47	–
CCc1cc(OC)c2c(c1)C(=O)C([N+](=O)[O-])C2=O (stereo not drawn) [6-Ethyl-4-methoxy-2-nitro indane-1,3-dione]	66	91	–	–	–	–	37	32	–
